One data set relates to CT-26 cells. The data set can be described thus: XTT viability of CT-26 cells after direct gas exposure in 96-well plate. The data set is classed as cell-based. Particulars: Mus musculus, CT26; 50,000 ppm gNO for 10, 60, or 180 seconds; XTT after 24 hours. An excerpt: Tumor celllines: The mouse colon carcinoma cell line, CT26WT, was cloned from CT26, an N-nitroso-N-methylurethane-induced, undifferentiated colon carcinoma cell line. The mouse mammary tumor cell line, 4T1, is a 6-thioguanine resistant cell line. When injected into BALB/c mice, 4T1 spontaneously produces highly metastatic tumors that can metastasize to the lung, liver, lymph nodes and brain while the primary tumor is growing in situ. […] Panc 02.03 is a pancreatic adenocarcinoma epithelial cell line derived in 1995 from a primary tumor removed from the head-of-the-pancreas of […] with pancreatic adenocarcinoma. CT26, 4T1 and Panc 02.03 cell lines were grown in RPMI based media (ATCC 30-2001) supplemented with fetal bovine serum and pen-strep (both from Biological Industries). The LLC1/LU2 cell line was grown in DMEM based media (ATCC 30-2002) supplemented with fetal bovine serum and pen-strep (Biological industries). The B16.F10 cell lines was grown in DMEM based media (ATCC 30-2002) supplemented with fetal bovine serum and pen-strep (Biologicalindustries).
In vitro systems: One system involves a direct exposure of cancer cells to gNO in 96-well plate. Gaseous NO at 150 ppm-50,000 ppm was delivered at 0.3 LPM for 10 seconds—3 minutes. In another system, cancer cells were exposed to gNO in a box made of acrylic glass. […]
A general note: Formazan colour is commonly taken as a measure of viable cells.

In a further data set the test system is A549 cells. The data set can be described thus: XTT viability of A549 cells after direct gas exposure in 96-well plate. It is filed as cell-based. The procedure: (§1) In vitro systems: One system involves a direct exposure of cancer cells to gNO in 96-well plate. Gaseous NO at 150 ppm-50,000 ppm was delivered at 0.3 LPM for 10 seconds—3 minutes. In another system, cancer cells were exposed to gNO in a box made of acrylic glass. Gaseous NO at 10,000-50,000 ppm was delivered at 0.9 LPM for 10 seconds—15 minutes.
(§2) The exposure of the cancer cells to gNO was done after removing the cell culture medium.
(§3) Immediately after gas exposure, cell culture medium was added, and the cells were incubated at a 37° C. and 5% CO2 incubator over-night. To test cell viability, XTT assay and Annexin V-Propidium Iodide assays were performed, according to known protocols.
A549 cells were prepared in RPMI medium and suspended in four 96-well plates. The wells were exposed to the gas by a tubing that was directed at each well for 10, 60 or 180 seconds. The diameter of the gas tubing used was about 25% of the diameter of each well. Three wells were used for each gas and exposure time. The plates were placed in a 5% CO2, 37° C. incubator for 15-18 hours and the viability of the cells was tested by XTT assay.

The next data set concerns PC-3 cells. As to the kind of experiment: XTT viability of PC-3 cells after direct gas exposure in 96-well plate. The data set is classed as cell-based. The procedure:
as §1, §2, §3
PC-3 cells were prepared in RPMI medium and suspended in four 96-well plates. The wells were exposed to the gas by a tubing that was directed at each well for 10, 60 or 180 seconds. The diameter of the gas tubing used was about 25% of the diameter of each well. Three wells were used for each gas and exposure time. The plates were placed in a 5% CO2, 37° C. incubator for 15-18 hours and the viability of the cells was tested by XTT assay.

A further data set concerns 4T1 cells. As to the kind of experiment: Third inoculation with 4T1 breast cancer cells in a gNO-treated CT26 immunized mouse. The data set is classed as in vivo. Particulars: mouse treated with 25,000 ppm NO twice 15 minutes; third inoculation 30 days post the second. The procedure:
Balb/c mouse was inoculated with 500,000 CT26 cells to the right flank. CT26 tumor was treated with 25,000 ppm NO for 15 minutes at a flow rate of 0.25 LPM. Seven days post gas treatment, this mouse was treated once again using the same protocol. Twelve days post the first NO treatment, this mouse was re-inoculated with 500,000 CT26 cells to the left flank. A third inoculation of cancer cells was performed 30 days post the second cell inoculation, using mouse breast cancer cells, was performed as well and the growth of a third inoculation of breast cancer cells, 4T1 cells. Forty-four days post challenge assay start (second inoculation), this mouse was sacrificed, and his spleen was harvested and preserved in RPMI-based media at 4° c. until processing of it. The spleen was processed into a sterile 35 mm culture dish containing 5 ml of RPMI-based media. Any extra connective tissues or fat was trimmed from the spleen. The flat end of a plunger was used to mince the spleen by crushing the spleen to release the splenocytes. A 70 μm strainer was primed by passing 1 ml of PBS through it and placed on a sterile 50 mL conical tube. The pellet was collected and transferred through the strainer via a 5 mL serological pipette. The strainer was washed with 3 mL of RPMI-based media. Tube will be centrifuged at 300×g for 10 minutes. […]

The test system of a further data set is CT26 tumor. The data set can be described thus: Combined gNO and surgery, CT26 tumor recurrence. The data set is classed as in vivo, mice. The note with it: then excision. The procedure: The following in vivo experimental procedures were carried out in accordance with the protocol approved by the Ethics Committee on the Use and Care of Animals. Institutional Animal Care and Use Committee (IACUC): IL-20-3-149.
CT26 tumor-bearing mice were treated with 20,000 ppm and 50,000 ppm gNO intra-tumorally for 5 minutes. Up to fourteen days post gNO treatment, all tumors were excised, and the recurrence rate was monitored for 89 days post-excision. Tumor recurrence was detected 17 days post treatment.

Molecules are shown by their SMILES.

As for `[N]=O` [gNO, nitric oxide], the viability (as a rule, a per cent measure of how many cells are alive, often set against a control) at 50000 ppm in the data set with CT-26 cells is ~1%; in the data set with PC-3 cells (Homo sapiens, PC-3, 50,000 ppm gNO for 180 seconds), ~17%. Also, the “viability of A549 cells” value in the data set on A549 cells (4000, 10,000, or 50,000 ppm gNO for 10 seconds) is on record as 50%-84%; with A549 cells (4000, 10,000, or 50,000 ppm gNO for 60 seconds), 65%-96%; in the data set on A549 cells (4000, 10,000, or 50,000 ppm gNO for 180 seconds), 45%-62%. In the data set with PC-3 cells (4,000 ppm and 10,000 ppm gNO for 180 seconds), the “viability of PC-3 cells” value is on record as 43-48%. Besides, the viability at 4000 ppm in the data set on PC-3 cells (Homo sapiens, PC-3, 1 min, 4,000 ppm, 10,000 ppm and 50,000 ppm gNO for 1 minute) is 44 to 55%; in the data set with PC-3 cells (Homo sapiens, PC-3, 4,000 ppm, 10,000 ppm and 50,000 ppm gNO for 10 seconds), 56 to 72%. In the data set with 4T1 cells, the “growth of a third inoculation of breast cancer cells (4T1)” value was “inhibited”. Moreover, the tumor recurrence entry with CT26 tumor (20,000 ppm gNO intra-tumorally 5 minutes, 17 days post-surgery) is “about 18%”; in the data set with CT26 tumor (50,000 ppm gNO intra-tumorally 5 minutes, 17 days post surgery) it was 0%.

The values above are taken from US20240238417A1, “METHODS OF PRODUCING TUMOR VACCINES AND USES THEREOF” (priority 2021, published 2024).
